Reference: patent US9427438B2, “Compositions and methods for treating Alzheimer's disease” (EIP Pharma, LLC, priority 2011, dated 2016)

Key:
p38 MAPK = settings: neurons preincubated in vitro; cited from earlier work
[1] = cited from earlier work
[2] = animals; cited from earlier work
[3] = high doses; cited from earlier work
hyperalgesia model = settings: cited from earlier work
arthritis model = settings: 10 mg/kg dose, reference compound; cited from earlier work
IL-1β = IL-1β ELISA of brain tissue of treated Tg2576 mice; format: in vivo, mouse; settings: 3 mg/kg BID, 2 weeks, soluble dorsal cortex fraction
rodent arthritis models = settings: cited from earlier work
[4] = cited from earlier work; remark: listed apart in the source
[5] = dogs; cited from earlier work
[6] = tested on: Alzheimer's disease (AD) transgenic Tg2576 mouse model; test: Amyloid plaque load by Aβ immunohistochemistry after 2-week oral treatment of Tg2576 mice; format: in vivo; settings: Tg2576 mice aged 26 months, 3 mg/kg BID oral, 2 weeks
osteoarthritis model = settings: rats, 50 mg/kg; cited from earlier work

For `C[S+]([O-])c1ccc(-c2nc(-c3ccc(F)cc3)c(-c3ccncc3)[nH]2)cc1` (stereo not drawn) [SB203580], the “blocking of the enhancement of MAPT phosphorylation” value (p38 MAPK) is given as “could be blocked”.
In the case of `O=c1ncn2nc(Sc3ccc(F)cc3F)ccc2c1-c1c(Cl)cccc1Cl` [VX-745], the plasma protein binding [1] is listed as “highly protein-bound”, the “blood brain barrier penetration” value [2] is listed as “known to penetrate the blood brain barrier (BBB)” and the “adverse neurological effects in animals” value [3] is listed as “experienced adverse neurological effects”. For the same compound, the “effect on hyperalgesia at the lowest dose” value (hyperalgesia model; 3 mg/kg dose) was “minimal effect”, the “inhibition of hyperalgesic response” value (hyperalgesia model; rats, doses of 30 mg/kg, 10 mg/kg and 3 mg/kg) was “significant inhibition of hyperalgesic response” and the “inhibition of paw swelling” value (arthritis model) was “not as effective at inhibiting paw swelling as other compounds assayed”. For the same compound, the “IL-1β levels compared to wild-type or control animals” value (IL-1β) was “no increases in IL-1β levels”, the anti-inflammatory activity (rodent arthritis models) was “significant anti-inflammatory activity” and the “adverse events in rheumatoid arthritis patients” value ([4]; 250 mg b.i.d., humans) was “adverse events, including gastrointestinal effects such as diarrhea and abdominal pain, and elevations in liver transaminases”. For the same compound, the “adverse neurological effects in humans” value [4] was “not observed in humans”, the “therapeutically effective unit dose for the treatment of rheumatoid arthritis” value ([4]; humans) was 250 mg and the “brain levels relative to systemic levels” value [5] was “twice that of systemic levels”. The “decrease of amyloid plaque area in the cortex as compared with vehicle” value ([6]; cortex) was 32.5%, the “mean amyloid plaque area, cortex” value ([6]; cortex (vehicle control 27.7%)) was 18.7% and the “decrease of amyloid plaque area in the hippocampus as compared with vehicle” value ([6]; hippocampus) was 61.8%. For the same compound, the “mean amyloid plaque area, hippocampus” value ([6]; hippocampus (vehicle control 13.6%)) was 5.2% and the “inhibition of knee degeneration compared to control animals” value (osteoarthritis model) was “statistically significant inhibition of knee degeneration”.
